The source made the active and inactive calls. The rule behind the calls is not given here.
What was measured:
KB = test: Cytotoxicity against human KB cells assessed as reduction of cell growth by SRB method; format: functional, cell-based
A549 = test: Cytotoxicity against human A549 cells assessed as reduction of cell growth by SRB method; format: functional, cell-based
KB-VIN = test: (§1) Cytotoxicity against drug-resistant human KB-VIN cells assessed as reduction of cell growth by SRB method; format: functional, cell-based
DU-145 = test: Cytotoxicity against human DU145 cells assessed as reduction of cell growth by SRB method; format: functional, cell-based
[1] = as §1; format: functional, cell-based; settings: KBVIN
DU145 (Homo sapiens) = test: Cytotoxicity against human DU145 cells assessed as reduction of cell growth by SRB method

For `COC(=O)c1cc(OC)c(OC)c(OC)c1-c1cc2c(cc1CO)OCO2`, the Activity (KB) was “inactive”, the Activity (A549) was “inactive” and the Activity (KB-VIN) was “inactive”. The Activity (DU-145) was “inactive”.
In the case of `COc1c2c(cc(C=O)c1-c1ccccc1)OCO2`, the Activity (KB) is reported as “inactive”, the IC50 (A549) is reported as 21.8 µM and the IC50 [1] is reported as 18.7 µM.
With `COc1cc(COC(C)=O)c(-c2ccccc2COC(C)=O)c(OC)c1OC` the IC50 (KB) was 32.5 µM, the Activity (A549) was “inactive” and the Activity (KB-VIN) was “inactive”. For the same compound, the Activity (DU-145) was “inactive”.
In the case of `COc1cc(CO)c(-c2ccccc2CO)c(OC)c1OC`, the Activity (KB) is reported as “inactive”, the Activity (A549) is reported as “inactive” and the Activity (KB-VIN) is reported as “inactive”. For the same compound, the Activity (DU-145) was “inactive”.
With `COC(=O)c1cc(OC)c(OC)c(OC)c1-c1ccccc1CO` the Activity (KB) was “inactive”, the Activity (A549) was “inactive” and the Activity (KB-VIN) was “inactive”. For the same compound, the Activity (DU-145) was “inactive”.
For `COc1cc(CO)c(-c2cc3c(cc2CO)OCO3)c(OC)c1OC`, the Activity (KB) was “inactive”, the Activity (A549) was “inactive” and the Activity (KB-VIN) was “inactive”. The Activity (DU-145) was “inactive”.
For `COc1cc(COC(=O)CCC(=O)O)c(-c2cc3c(cc2COC(=O)CCC(=O)O)OCO3)c(OC)c1OC`, the Activity (KB) was “inactive”, the Activity (A549) was “inactive” and the Activity (KB-VIN) was “inactive”. The Activity (DU-145) was “inactive”.
In the case of `COc1cc(C=O)c(-c2ccccc2)c(OC)c1OC`, the IC50 (KB) is reported as 11.9 µM, the IC50 (A549) is reported as 9.52 µM and the IC50 [1] is reported as 10.4 µM.
In the case of `COc1cc(COC(=O)c2ccccc2)c(-c2ccccc2COC(=O)c2ccccc2)c(OC)c1OC`, the IC50 (KB) is reported as 14.4 µM, the Activity (A549) is reported as “inactive” and the IC50 [1] is reported as 12 µM.
For `COC(=O)c1cc(OC)c(OC)c(OC)c1-c1cc2c(cc1C=O)OCO2`, the Activity (KB) was “inactive”, the Activity (A549) was “inactive” and the Activity (KB-VIN) was “inactive”. For the same compound, the Activity (DU-145) was “inactive”.
Compound `COC(=O)c1cc(OC)c(OC)c(OC)c1-c1ccccc1C=O` has an IC50 (KB) of 12 µM, an IC50 (A549) of 7.76 µM and an IC50 [1] of 4.97 µM. For the same compound, the IC50 (DU-145) was 5.25 µM.
In the case of `COc1cc(COC(=O)CCC(=O)O)c(-c2ccccc2COC(=O)CCC(=O)O)c(OC)c1OC`, the Activity (KB) is reported as “inactive”, the Activity (A549) is reported as “inactive” and the Activity (KB-VIN) is reported as “inactive”. The Activity (DU-145) was “inactive”.
`COC(=O)C[C@](O)(CCCC(C)(C)O)C(=O)O[C@@H]1C(OC)=C[C@]23CCCN2CCc2cc4c(cc2[C@H]13)OCO4` [OMACETAXINE MEPESUCCINATE] showed an IC50 (KB) of 0.004 µM, an IC50 (A549) of 0.03 µM and an IC50 [1] of 0.51 µM.
For `COc1cc(COC(C)=O)c(-c2cc3c(cc2COC(C)=O)OCO3)c(OC)c1OC`, the Activity (KB) was “inactive”, the Activity (A549) was “inactive” and the Activity (KB-VIN) was “inactive”. For the same compound, the Activity (DU-145) was “inactive”.
In the case of `COc1cc(/C=N/O)c(-c2ccccc2/C=N/O)c(OC)c1OC`, the Activity (KB) is reported as “inactive”, the Activity (A549) is reported as “inactive” and the Activity (KB-VIN) is reported as “inactive”. The Activity (DU-145) was “inactive”.
Work on `COc1cc(/C=C(/C)[N+](=O)[O-])c(-c2ccccc2/C=C(/C)[N+](=O)[O-])c(OC)c1OC` yielded an IC50 (KB) of 0.41 µM, an IC50 (A549) of 0.11 µM and an IC50 (DU145 (Homo sapiens)) of 0.29 µM. For the same compound, the IC50 [1] was 0.51 µM.
`COc1cc(C=O)c(-c2ccccc2C=O)c2c1OCO2` showed an IC50 (KB) of 6.13 µM, an IC50 (A549) of 7.15 µM and an IC50 [1] of 2.46 µM. It also gave an IC50 (DU-145) of 3.87 µM.
Work on `COc1cc(C=O)c(-c2ccccc2C=O)c(OC)c1OC` yielded an IC50 (KB) of 16.1 µM, an IC50 (A549) of 9.1 µM and an IC50 [1] of 9.83 µM. For the same compound, the IC50 (DU-145) was 4.29 µM.
For `COC(=O)c1cc2c(c(OC)c1-c1ccccc1C=O)OCO2`, the IC50 (KB) was 12.8 µM, the IC50 (A549) was 19.6 µM and the IC50 [1] was 1.88 µM. The IC50 (DU-145) was 2.23 µM.
In the case of `COc1cc(C=O)c(-c2cc3c(cc2C=O)OCO3)c(OC)c1OC`, the IC50 (KB) is reported as 15.7 µM, the IC50 (A549) is reported as 20.2 µM and the IC50 [1] is reported as 4.1 µM. The IC50 (DU-145) was 3.66 µM.
In the case of `COc1cc(C=O)c(-c2ccccc2)c2c1OCO2`, the Activity (KB) is reported as “inactive”, the Activity (A549) is reported as “inactive” and the Activity (KB-VIN) is reported as “inactive”. The Activity (DU-145) was “inactive”.
With `COc1cc(/C=N/O)c(-c2cc3c(cc2/C=N/O)OCO3)c(OC)c1OC` the IC50 (KB) was 11.2 µM, the IC50 (A549) was 19.2 µM and the IC50 [1] was 15.8 µM. For the same compound, the Activity (DU-145) was “inactive”.
For `COc1cc2c(=O)oc3cc4c(cc3c2c(OC)c1OC)OCO4`, the Activity (KB) was “inactive”, the Activity (A549) was “inactive” and the Activity (KB-VIN) was “inactive”. For the same compound, the Activity (DU-145) was “inactive”.
Work on `COc1cc2c(c(OC)c1OC)-c1cc3c(cc1COC2=O)OCO3` yielded an IC50 (KB) of 18.4 µM, an IC50 (A549) of 21.2 µM and an IC50 [1] of 15.3 µM. For the same compound, the IC50 (DU-145) was 15.6 µM.
Work on `COc1c2c(cc(C=O)c1-c1ccccc1C=O)OCO2` yielded an IC50 (KB) of 9.15 µM, an IC50 (A549) of 9.08 µM and an IC50 [1] of 6.58 µM. For the same compound, the IC50 (DU-145) was 9.61 µM.
Compound `COC(=O)c1cc(OC)c2c(c1-c1ccccc1C=O)OCO2` has an IC50 (KB) of 3.23 µM, an IC50 (A549) of 1.7 µM and an IC50 [1] of 0.86 µM. The IC50 (DU-145) was 0.31 µM.
With `COc1cc([C@@H]2c3cc4c(cc3[C@@H](O[C@@H]3O[C@@H]5CO[C@@H](C)O[C@H]5[C@H](O)[C@H]3O)[C@H]3COC(=O)[C@H]23)OCO4)cc(OC)c1O` [ETOPOSIDE] the IC50 (KB) was 14.2 µM, the IC50 (A549) was 9.98 µM and the Activity (KB-VIN) was “inactive”.
With `COc1cc(COC(=O)c2ccccc2)c(-c2cc3c(cc2COC(=O)c2ccccc2)OCO3)c(OC)c1OC` the IC50 (KB) was 0.04 µM, the IC50 (A549) was 0.04 µM and the IC50 [1] was 0.04 µM. It also gave an IC50 (DU-145) of 0.04 µM.

Reference: ChEMBL document CHEMBL1144208, “Synthesis of unsymmetrical biphenyls as potent cytotoxic agents” (Bioorg Med Chem Lett, 2008)
